Here are results for one compound from paper PMC6006475 (2016).

Assay [1] deals with c-MYC-(A) (DNA, G4) TGAGGGTGGGTAGGGTGGGTAA
The assay is described as follows: FRET melting. The following applies: 0.2 µM BTC, SD ±5%.

Assay [2] deals with c-MYC-(D) (DNA, G4) TGAGGGTGGGTAGGGTGGGTAA
The assay is described as follows: 1H NMR titration (imino region). The following applies: 25 mM Tris-HCl, pH 7.4, 298 K, 100 µM DNA, binds minor conformation.

Assay [3] deals with h-TELO-(D) (DNA, G4) GGGTTAGGGTTAGGGTTAGGG
The assay is described as follows: 1H NMR titration (imino region). Particulars: 25 mM Tris-HCl, pH 7.4, 298 K, 100 µM DNA.

Assay [4] relates to h-TELO-(A) (DNA, G4) GGGTTAGGGTTAGGGTTAGGG
The assay is described as follows: FRET melting. Particulars: 0.4 µM BTC, SD ±5%.

Assay [5] deals with ds DNA (DNA, hairpin, HEG (hexaethylene glycol) linker between 10 and 11) TATAGCTATATATAGCTATA
The assay is described as follows: FRET melting. The following applies: 1 µM BTC, highest tested.

Setting [6] is: K+ (50 mM potassium cacodylate), pH 7.4, pre-annealed.
The mark [7] stands for this setting: none (K+-free, MQ water), pH ~7.

Molecules are shown by their SMILES.

The ΔTm is the change in melting temperature against a reference sample. Consider `CN(C)CCCNC(=O)c1ccc(-n2cc(-c3ccc4[nH]c5ccc(-c6cn(-c7ccc(C(=O)NCCCN(C)C)cc7)nn6)cc5c4c3)nn2)cc1`, for which the ΔTm in assay [1] (setting [6]) stood at 24.0 °C; in assay [1] (setting [7]), 23.5 °C; in assay [4] (setting [6]), 38.7 °C; in assay [4] (setting [7]), 38.5 °C; in assay [5] (K+ (50 mM potassium cacodylate), pH 7.4), 3 °C; in assay [5] (setting [7]), 2.9 °C. For the same compound, the binding entry is given as “yes” in assay [2] (K+ (100 mM KCl)); “yes” in assay [2] (none (K+-free)); “yes” in assay [3] (K+ (100 mM KCl), weak shift perturbations); “yes” in assay [3] (none (K+-free), partial folding promoted).
